EP1614683B1, “Indazole compounds and pharmaceutical compositions for inhibiting protein kinases, and methods for their use” (priority 1999, dated 2001)
Read-outs that look alike come from different tables or passages of the source.

Legend:
in vitro = in vitro ADME, human; conditions: 2 h; for remaining at 2 h, 5 µM: read-out: % remain (HLM, 2 h)
Method: Compound metabolism in human liver microsomes was measured by LC-MS analytical assay procedures as follows. First, human liver microsomes (HLM) were thawed and diluted to 5 mg/mL with cold 100 mM potassium phosphate (KPO4) buffer. Appropriate amounts of KPO4 buffer, NADPH-regenerating solution (containing B-NADP, glucose-6-phosphate, glucose-6-phosphate dehydrogenase, and MgCl2), and HLM were preincubated in 13 x 100 mm glass tubes at 37 C for 10 min. (3 tubes per test compound--triplicate). Test compound (5 µM final) was added to each tube to initiate reaction and was mixed by gentle vortexing, followed by incubation at 37 °C. At t=0, 2 h, a 250-µL sample was removed from each incubation tube to separate 12 x 75 mm glass tubes containing 1 mL ice-cold acetonitrile with 0.05 µM reserpine. […] Supernatant was transferred to new 12 x 75 mm glass tubes and evaporated by Speed-Vac centrifugal vacuum evaporator. Samples were reconstituted in 200 µL 0.1 % formic acid/acetonitrile (90/10) and vortexed vigorously to dissolve. The samples were then transferred to separate polypropylene microcentrifuge tubes and centrifuged at 14000 x g for 10 min. (Fisher Micro 14, S/N M0017580). For each replicate (#1-3) at each timepoint (0 and 2 h), an aliquot sample of each test compound was combined into a single HPLC vial insert (6 total samples) for LC-MS analysis, which is described below.

[1] = test system: human umbilical vein endothelial cells (HUVEC); assay: HUVEC proliferation assay (VEGF-stimulated, MTT); format: cell-based; conditions: Homo sapiens, HUVEC, Table 1
LCK tyrosine kinase = LCK tyrosine kinase (Homo sapiens, UniProt P06239, C224D/P223M); assay: LCK spectrophotometric assay; format: biochemical; conditions: Table 1; compound concentration 1 µM; read-out: Lck-P* (% inhibition)
Chain of LCK tyrosine kinase (P06239 223-509 P223M/C224D): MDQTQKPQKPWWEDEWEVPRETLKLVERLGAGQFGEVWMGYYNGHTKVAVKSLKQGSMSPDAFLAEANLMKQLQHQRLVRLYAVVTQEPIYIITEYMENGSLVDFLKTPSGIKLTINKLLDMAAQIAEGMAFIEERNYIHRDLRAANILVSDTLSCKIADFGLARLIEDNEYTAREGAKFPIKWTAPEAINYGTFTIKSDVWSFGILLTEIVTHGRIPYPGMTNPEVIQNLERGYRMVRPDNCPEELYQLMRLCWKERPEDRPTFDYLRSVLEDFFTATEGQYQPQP
Method: The spectrophotometric assay was carried out as described above for VEGF-R2, except for the following changes in concentration: LCK = 60 nM, MgCl2 = 0 mM, poly(E4Y1) = 20 mM.

[2] = biological target: unphosphorylated VEGF-R2Δ50 (Homo sapiens, UniProt P35968, DEL940-989/E990V); assay: biochemical; conditions: for inhibition at 0.05 µM: read-out: FLVK ** (% inhibition); for inhibition at 1 µM: read-out: FLVK ** (% inhibition, cell marked *)
Chain of unphosphorylated VEGF-R2Δ50 (P35968 with tags, fused parts or gaps DEL940-989/E990V limits assumed): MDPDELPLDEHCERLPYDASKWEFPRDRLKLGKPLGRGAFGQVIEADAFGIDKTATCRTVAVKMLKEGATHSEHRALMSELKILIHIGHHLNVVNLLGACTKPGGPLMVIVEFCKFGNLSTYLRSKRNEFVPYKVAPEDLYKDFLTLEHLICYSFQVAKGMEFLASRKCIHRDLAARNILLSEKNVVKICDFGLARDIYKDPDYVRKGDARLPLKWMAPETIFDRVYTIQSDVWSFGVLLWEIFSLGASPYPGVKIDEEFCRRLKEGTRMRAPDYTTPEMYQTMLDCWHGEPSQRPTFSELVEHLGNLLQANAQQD

human FGF-R1 = human FGF-R1 (Homo sapiens, UniProt P11362, C488A/C584S/L457V); assay: FGF-R spectrophotometric assay; format: biochemical; conditions: Table 1; compound concentration 1 µM; read-out: FGF-P* (% inhibition)
Chain of human FGF-R1 (P11362 456-766 L457V/C488A/C584S): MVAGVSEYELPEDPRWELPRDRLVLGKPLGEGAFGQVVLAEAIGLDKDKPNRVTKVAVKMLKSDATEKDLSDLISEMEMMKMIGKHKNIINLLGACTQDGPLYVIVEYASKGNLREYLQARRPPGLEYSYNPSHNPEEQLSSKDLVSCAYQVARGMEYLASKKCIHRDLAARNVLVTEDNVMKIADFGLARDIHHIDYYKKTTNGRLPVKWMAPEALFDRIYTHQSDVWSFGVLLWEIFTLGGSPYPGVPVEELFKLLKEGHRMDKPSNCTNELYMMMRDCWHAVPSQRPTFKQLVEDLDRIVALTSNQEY
Method: The spectrophotometric assay was carried out as described above for VEGF-R2, except for the following changes in concentration: FGF-R = 50 nM, ATP = 2 mM, and poly(E4Y1) =15 mM.

[3] = human liver microsomes, 5 µM test compound, 37 °C
[4] = + albumin, read-out: HUVEC + albumin IC50

Ki ([2]; FLVK ** (Ki), Table 1)	Compound	remaining at 2 h, 5 µM (in vitro; [3])	IC50 [1, 4]	IC50 ([1]; read-out: HUVEC IC50)	inhibition at 1 µM (LCK tyrosine kinase)	inhibition at 0.05 µM [2]	inhibition at 1 µM (human FGF-R1)	% remain (HLM, 2 h) (in vitro; human, microsomes, 5 µM)	% remain (HLM, 2 h) (in vitro; [3])	inhibition at 1 µM [2]
	C[C@@H]1C[C@H]1C(=O)Nc1cccc(C(=O)c2ccc3c(/C=C/c4ccccn4)n[nH]c3c2)c1 (racemic) [Reference Example 41(h), 6-[3-((2-RS-trans-methylcyclopropyl)carboxamido)benzoyl]-3-E-[2-(pyridin-2-yl)ethenyl]-1H-indazole]	8%	25 nM	2 nM	30%	90%				
0.86 nM	O=C(Cc1ccccn1)Nc1cccc(C(=O)c2ccc3c(/C=C/c4ccccc4)n[nH]c3c2)c1 [19(g), 6-[3-(pyridin-2-ylacetamido)benzoyl]-3-E-styryl-1H-indazole]	90%	1920 nM	18 nM	19%		59%			
	Cc1cc(C(=O)Nc2cc(C(=O)c3ccc4c(/C=C/c5ccccn5)n[nH]c4c3)c(C)cc2C)n(C)n1 [41(min)]		14.4 nM	1.3 nM	6%	93%	46%	94%		
	O=C(NCc1ccco1)c1ccccc1Sc1ccc2c(/C=C/c3ccccn3)n[nH]c2c1 [Reference Example 35(bb), 6-[2-((fur-2-yl)methylcarbamoyl)phenylsulfanyl]-3-E-[2-(pyridin-2-yl)ethenyl]-1H-indazole]		4.1 nM			87%			8%	
	Cn1cccc1C(=O)NNC(=O)c1ccccc1Sc1ccc2c(/C=C/c3ccccn3)n[nH]c2c1 [Reference Example 35(e), 6-[2-((1-methylpyrrol-2-ylhydrazido)carbonyl)phenylsulfanyl]-3-E-[2-(pyridin-2-yl)ethenyl)-1H-indazole]		4.8 nM		56%	99%	69%		34%	
	C=C(C)CNC(=O)c1ccccc1Sc1ccc2c(/C=C/c3ccccn3)n[nH]c2c1 [Reference Example 35(ee), 6-[2-(2-Methyl-2-propenylcarbamoyl)phenylsulfanyl]-3-E-[2-(pyridin-2-yl)ethenyl]-1H-indazole]		3 nM			82%			13%	
	COc1ccc(CNC(=O)c2ccccc2Sc2ccc3c(/C=C/c4ccccn4)n[nH]c3c2)cc1 [Reference Example 35(g)]		~15 nM			100%			53%	
	Cc1ccc(CNC(=O)c2ccccc2Sc2ccc3c(/C=C/c4ccccn4)n[nH]c3c2)o1 [Reference Example 35(h), 6-[2-((5-Methylfur-2-yl)methylcarbamoyl)phenylsulfanyl)-3-E-[2-(pyridin-2-yl)ethenyl]-1H-indazole]		3.6 nM			100%			9%	
	O=C(NOCC1CC1)c1ccccc1Sc1ccc2c(/C=C/c3ccccn3)n[nH]c2c1 [Reference Example 35(s), 6-[2-((Cyclopropyl)methoxycarbamoyl)phenylsulfanyl]-3-E-[2-(pyridin-2-yl)ethenyl]-1H-indazole]	16%	4.6 nM		18%		64%			60%
	CCCONC(=O)c1ccccc1Sc1ccc2c(/C=C/c3ccccn3)n[nH]c2c1 [Reference Example 35(t), 6-[2-(n-Propoxycarbamoyl)phenylsulfanyl]-3-E-[2-(pyridin-2-yl)ethenyl]-1H-indazole]		4 nM		12%		63%		7%	59%
	C=CCNC(=O)c1ccccc1Sc1ccc2c(/C=C/c3ccccn3)n[nH]c2c1 [Reference Example 35(u), 6-[2-(Allylcarbamoyl)phenylsulfanyl]-3-E-[2-(pyridin-2-yl)ethenyl]-1H-indazole]		2.8 nM			79%			27%	
	CCNC(=O)c1ccccc1Sc1ccc2c(/C=C/c3ccccn3)n[nH]c2c1 [Reference Example 35(x), 6-[2-(Ethylcarbamoyl)phenylsulfanyl]-3-E-[2-(pyridin-2-yl)ethenyl]-1H-indazole]		2 nM			75%			37%	
	O=C(Nc1nccs1)c1ccccc1Sc1ccc2c(/C=C/c3ccccn3)n[nH]c2c1 [Reference Example 35(y), 6-[2-(Thiazol-2-ylcarbamoyl)phenylsulfanyl]-3-E-[2-(pyridin-2-yl)ethenyl]-1H-indazole]		1 to 3 nM		29%	99%	82%		7%	
	CCOCCNC(=O)c1ccccc1Sc1ccc2c(/C=C/c3ccccn3)n[nH]c2c1 [Reference Example 35(z), 6-[2-(2-(Ethoxy)ethylcarbamoyl)phenylsulfanyl]-3-E-[2-(pyridin-2-yl)ethenyl]-1H-indazole]		7.1 nM			95%			2%	
	CCONC(=O)c1cccc(F)c1Sc1ccc2c(/C=C/c3ccccn3)n[nH]c2c1 [Reference Example 37(a), 6-[6-Fluoro-2-(ethoxycarbamoyl)phenylsulfanyl}-3-E-[2-(pyridin-2-yl)ethenyl]-1H-indazole]		15 nM		6%	57%	35%		21, ! %	
	CC(C)ONC(=O)c1cccc(F)c1Sc1ccc2c(/C=C/c3ccccn3)n[nH]c2c1 [Reference Example 37(c), 6-[6-fluoro-2-(isopropoxycarbamoyl)phenylsulfanyl]-3-E-[2-(pyridin-2-yl)ethenyl]-1H-indazole]		12 nM		12%	83%	39%		21%	
	COc1cccc(C(=O)Nc2cccc(C(=O)c3ccc4c(/C=C/c5ccccn5)n[nH]c4c3)c2)c1 [Reference Example 41(bb), 6-[3-(3-methoxybenzamido)benzoyl]-3-E-[2-(pyridin-2-yl)ethenyl]-1H-indazole]		1 to 3 nM		76%	99%	88%		110%	
	CC(C)=CC(=O)Nc1cccc(C(=O)c2ccc3c(/C=C/c4ccccn4)n[nH]c3c2)c1 [Reference Example 41(dd), 6-[3-(3,3-dimethylacrylamido)benzoyl]-3-E-[2-(pyridin-2-yl)ethenyl]-1H-indazole]		5.8 nM		50%	98%	69%		7%	
	C=CCn1nc(C)cc1C(=O)Nc1cc(C(=O)c2ccc3c(/C=C/c4ccccn4)n[nH]c3c2)ccc1C [Reference Example 41(ff), 6-[3-((1-Allyl-3-methyl-1H-pyrazol-5-yl)carboxamido)-4-methylbenzoyl]-3-E-[2-(pyridin-2-yl)ethenyl]-1H-indazole]		5.6 nM		15%	98%			68%	
